In paper PMC7584160 (Environmental Health Perspectives, 2020):
Like-named read-outs stand apart in the source and are kept apart here.

Assays:
GH3 cells [1] = experiment: GH3 cell proliferation assay in the presence of 10 nM T3; format: cell-based, rat
[2] = target: T1, human thyroxine-binding globulin (TBG) (Homo sapiens, UniProt P05543); experiment: TBG fluorescence polarization competitive binding assay (F-T4 probe); settings: 100 nM TBG, 50 nM F-T4; up to 50 μM competitor
T1 construct: purchased Calbiochem 612075
T1 sequence (P05543 21-415): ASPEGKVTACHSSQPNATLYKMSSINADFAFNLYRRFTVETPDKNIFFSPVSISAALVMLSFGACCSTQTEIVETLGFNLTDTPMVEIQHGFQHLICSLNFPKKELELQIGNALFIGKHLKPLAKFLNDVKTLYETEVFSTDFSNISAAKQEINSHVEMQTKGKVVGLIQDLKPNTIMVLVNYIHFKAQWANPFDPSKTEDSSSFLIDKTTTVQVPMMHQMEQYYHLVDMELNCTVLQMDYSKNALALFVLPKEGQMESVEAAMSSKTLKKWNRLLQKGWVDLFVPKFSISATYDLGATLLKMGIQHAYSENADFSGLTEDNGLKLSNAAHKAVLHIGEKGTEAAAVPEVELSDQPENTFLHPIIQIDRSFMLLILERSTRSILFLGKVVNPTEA

human TRα-LBD = target: T2, human TRα-LBD (Homo sapiens, UniProt P10827); experiment: TRα-LBD fluorescence polarization competitive binding assay (F-T3 probe)
T2 sequence (P10827 163-410 isoform P10827-2 limits assumed): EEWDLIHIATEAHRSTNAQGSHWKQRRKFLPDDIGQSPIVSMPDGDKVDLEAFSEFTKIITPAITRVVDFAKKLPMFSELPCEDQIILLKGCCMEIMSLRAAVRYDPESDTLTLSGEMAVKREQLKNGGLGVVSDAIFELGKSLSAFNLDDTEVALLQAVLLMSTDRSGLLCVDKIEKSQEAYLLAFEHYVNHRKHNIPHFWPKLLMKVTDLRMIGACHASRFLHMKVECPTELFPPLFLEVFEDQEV

human TRβ-LBD = target: T3, human TRβ-LBD (Homo sapiens, UniProt P10828); experiment: TRβ-LBD fluorescence polarization competitive binding assay (F-T3 probe)
T3 construct: purchased Zhongding Biotechnology Co. Ltd
T3 sequence (P10828 217-461 limits assumed): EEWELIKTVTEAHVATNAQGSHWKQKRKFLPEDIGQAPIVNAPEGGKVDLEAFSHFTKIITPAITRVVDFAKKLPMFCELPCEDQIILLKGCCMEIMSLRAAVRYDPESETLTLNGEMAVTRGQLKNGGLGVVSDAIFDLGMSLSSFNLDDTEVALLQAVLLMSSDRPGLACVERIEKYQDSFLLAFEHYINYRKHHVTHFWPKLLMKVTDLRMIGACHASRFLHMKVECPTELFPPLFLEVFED

GH3 cells [3] = experiment: GH3 cell proliferation assay (individual exposure, with or without amiodarone); format: cell-based, rat; settings: 96 h; for LOEC for GH3 cell proliferation: individual exposure
[4] = target: T4, human transthyretin (TTR) (Homo sapiens, UniProt P02766); experiment: TTR fluorescence polarization competitive binding assay (F-T4 probe); settings: for TTR RBP (relative binding potency): IC50 of TBBPA divided by that of competitor, TBBPA set as 1.00
T4 construct: purchased Calbiochem 529577

[5] = IC20 of TBBPA divided by that of competitor, TBBPA set as 1.00
[6] = […] nM TRα-LBD, 50 nM F-T3, pH 7.5, 25°C, linear interpolation, read-out: TRα-LBD IC20
[7] = […] nM TRβ-LBD, 50 nM F-T3, pH 7.5, 25°C, linear interpolation, read-out: TRβ-LBD IC20
[8] = […] nM TTR, 50 nM F-T4, pH 7.5, 25°C, linear interpolation, read-out: TTR IC50 (converted)
[9] = co-exposed with 10 nM T3, mass concentration

## C=CCOc1c(Br)cc(C(C)(C)c2cc(Br)c(OCC=C)c(Br)c2)cc1Br [TBBPA-BAE, TBBPA-bis(allyl ether)]
GH3 cells [1]; co-exposed with 10 nM T3
  Inhibition of T3-induced GH3 cell proliferation effect: ~60%

## CC(C)(c1cc(Br)c(O)c(Br)c1)c1cc(Br)c(O)c(Br)c1 [TBBPA, Tetrabromobisphenol A, reference compound]
[2]
  Binding to TBG: did not bind
Human TRα-LBD; [5]
  TRα-LBD RBP: 1.00
Human TRα-LBD; [6]
  IC20: 1500 nM
Human TRβ-LBD; [5]
  TRβ-LBD RBP: 1.00
Human TRβ-LBD; [7]
  IC20: 5000 nM
GH3 cells [3]; individual exposure 0.3-10 μM, relative to 0.1% DMSO control
  Highest activity of GH3 proliferation induction: 137%
GH3 cells [3]
  LOEC for GH3 cell proliferation: 2.5 µM
GH3 cells [1]; co-exposed with 10 nM T3
  LOEC for enhancing T3-induced GH3 cell proliferation: 2.5 µM
GH3 cells [1]; co-exposed with 10 nM T3, 96 h
  Enhancement of T3-induced GH3 cell proliferation effect: 20%

## CC(C)(c1cc(Br)c(OCC(Br)CBr)c(Br)c1)c1cc(Br)c(OCC(Br)CBr)c(Br)c1 (centres unmarked) [TBBPA-BDBPE, TBBPA-bis(2,3-dibromopropyl ether)]
GH3 cells [1]; co-exposed with 10 nM T3
  Effect on T3-induced GH3 cell proliferation: no effect

## C=CCOc1c(Br)cc(C(C)(C)c2cc(Br)c(O)c(Br)c2)cc1Br [TBBPA-MAE, TBBPA-mono(allyl ether)]
[4]
  TTR RBP (relative binding potency): 2.00
[4]; [8]
  IC50: 100 nM
[4]; compared with T4
  TTR-binding potency, fold higher than T4: 2 fold
[4]; compared with TBBPA
  TTR-binding potency, fold greater than TBBPA: 2 fold
[4]; mass concentration given beside the μM value, read-out: TTR IC50 (converted)
  IC50: 97.6 nM
Human TRα-LBD; [5]
  TRα-LBD RBP: 0.25
Human TRα-LBD; [6]
  IC20: 6000 nM
Human TRα-LBD; mass concentration given beside the μM value, read-out: TRα-LBD IC20
  IC20: 3.4 µg/mL
Human TRβ-LBD; [5]
  TRβ-LBD RBP: 1.25
Human TRβ-LBD; [7]
  IC20: 4000 nM
Human TRβ-LBD; mass concentration given beside the μM value, read-out: TRβ-LBD IC20
  IC20: 2.3 µg/mL

## CC(C)(c1cc(Br)c(OCC2CO2)c(Br)c1)c1cc(Br)c(OCC2CO2)c(Br)c1 (centres unmarked) [TBBPA-BGE, TBBPA-bis(glycidyl ether)]
Human TRβ-LBD; [5]
  TRβ-LBD RBP: 0.20
Human TRβ-LBD; [7]
  IC20: 25000 nM
GH3 cells [1]; co-exposed with 10 nM T3
  Inhibition of T3-induced GH3 cell proliferation effect: approximately 80%

## CC(C)(c1cc(Br)c(O)c(Br)c1)c1cc(Br)c(OCC(Br)CBr)c(Br)c1 (centres unmarked) [TBBPA-MDBPE, TBBPA-mono(2,3-dibromopropyl ether)]
[4]
  TTR RBP (relative binding potency): 0.20
[4]; TTR IC50, […] nM TTR, 50 nM F-T4, pH 7.5, 25°C, linear interpolation
  IC50: 1000 nM
[4]; TTR IC50, mass concentration given beside the μM value
  IC50: 990 nM
[4]; compared with T4
  TTR-binding potency, fold lower than natural ligand T4: ~5 fold
Human TRα-LBD; [5]
  TRα-LBD RBP: 0.03
Human TRα-LBD; pH 7.5, read-out: TRα-LBD IC20
  IC20: 50000 nM
Human TRα-LBD; read-out: TRα-LBD IC20
  IC20: 36.8 µg/mL
Human TRβ-LBD; [5]
  TRβ-LBD RBP: 0.25
Human TRβ-LBD; pH 7.5, read-out: TRβ-LBD IC20
  IC20: 20000 nM
Human TRβ-LBD; read-out: TRβ-LBD IC20
  IC20: 14.7 µg/mL
GH3 cells [3]
  LOEC for GH3 cell proliferation: 0.3 µM
GH3 cells [3]; mass concentration
  LOEC for GH3 cell proliferation: 220 µg/L
GH3 cells [1]; co-exposed with 10 nM T3
  LOEC for enhancing T3-induced GH3 cell proliferation: 0.3 µM
GH3 cells [1]; [9]
  LOEC for enhancing T3-induced GH3 cell proliferation: 220 µg/L

## CC(C)(c1cc(Br)c(O)c(Br)c1)c1cc(Br)c(OCC2CO2)c(Br)c1 (centres unmarked) [TBBPA-MGE, TBBPA-mono(glycidyl ether)]
[4]
  TTR RBP (relative binding potency): 0.40
[4]; [8]
  IC50: 500 nM
[4]; compared with T4
  TTR-binding potency, fold lower than natural ligand T4: approximately 2 fold
Human TRα-LBD
  TRα-LBD RBP: 0.18
Human TRα-LBD; [6]
  IC20: 8000 nM
Human TRβ-LBD
  TRβ-LBD RBP: 0.83
Human TRβ-LBD; [7]
  IC20: 6000 nM
GH3 cells [3]
  LOEC for GH3 cell proliferation: 2.5 µM
GH3 cells [3]; mass concentration
  LOEC for GH3 cell proliferation: 1400 µg/L
GH3 cells [1]; co-exposed with 10 nM T3
  LOEC for enhancing T3-induced GH3 cell proliferation: 1.2 µM
GH3 cells [1]; [9]
  LOEC for enhancing T3-induced GH3 cell proliferation: 700 µg/L
